The text below walks through data of paper PMC8273887 (Journal of Medicinal Chemistry, 2021).

The nature of data set [1]: Stability in simulated gastric fluid (SGF). It counts as in vitro ADME, porcine. The conditions noted are these: simulated gastric fluid (SGF) with pepsin, pH 1.3, 15 μL of 1 mM peptide stock in 285 μL SGF, 37 °C, samples 0 min-24 h quenched with 0.2 M Na2CO3, RP-HPLC/LC-MS peak area as % of time 0, exponential one-phase decay fit, read-out: t1/2 in SGF. The essentials:
(§1)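 Peptides incubated at 37 °C in SGF (pepsin, pH 1.3) or SIF (porcine pancreatin, pH 6.8), sampled from 0 min to 24 h. Remaining peptide quantified by RP-HPLC peak area as % of time 0, with t1/2 from one-phase exponential decay fit. Metabolites identified by LC-MS.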

Data set [2] can be described thus: Stability in simulated intestinal fluid (SIF). The class given is in vitro ADME. As to conditions: pig, simulated intestinal fluid (SIF) with porcine pancreatin, pH 6.8, 15 μL of 1 mM peptide stock in 285 μL SIF, 37 °C, samples 0 min-24 h quenched with 5% aqueous TFA, RP-HPLC/LC-MS peak area as % of time 0, exponential one-phase decay fit, read-out: t1/2 in SIF. The method, boiled down:
as §1

For the next data set, the target named is T1, CXCR4 (Homo sapiens, UniProt P61073).
T1 construct: expressed in transfected cells; host or cells: COS-7 (African green monkey), transient co-transfection with GαΔ6qi4myr
T1 sequence (P61073 whole entry): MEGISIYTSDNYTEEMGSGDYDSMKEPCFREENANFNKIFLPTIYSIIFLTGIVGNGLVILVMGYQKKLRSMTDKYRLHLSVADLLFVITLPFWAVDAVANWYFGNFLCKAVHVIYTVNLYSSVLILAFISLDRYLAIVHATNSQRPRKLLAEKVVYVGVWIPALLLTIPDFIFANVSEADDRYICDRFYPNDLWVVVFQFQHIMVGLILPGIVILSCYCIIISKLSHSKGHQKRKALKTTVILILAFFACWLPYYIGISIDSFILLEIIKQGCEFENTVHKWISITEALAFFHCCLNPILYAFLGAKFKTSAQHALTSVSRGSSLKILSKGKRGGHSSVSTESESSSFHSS
The data set is described as follows: Inositol 1 phosphate (IP1) accumulation assay (HTRF) in COS-7 cells transfected with CXCR4. The class given is cell-based. The conditions noted are these: COS-7 transiently co-transfected with CXCR4-eYFP and chimeric GαΔ6qi4myr; 10^-12 to 10^-5 M, 1 h, 37 °C; HTRF; n ≥ 2. The essentials:
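COS-7 cells transiently co-transfected with CXCR4-eYFP and chimeric GαΔ6qi4myr were stimulated 1 h at 37 °C in HBSS with 20 mM LiCl; final ligand 10^–12 to 10^–5 M CXCL12, 1 or 10 μM TFF3 forms. IP1 measured by competitive HTRF (665/620 ratio), normalized to CXCL12 response.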
Background: In TR-FRET formats the signal depends on donor and acceptor labels being close together.

For `CC[C@H](C)[C@@H]1NC(=O)[C@H](CCCNC(=N)N)NC(=O)[C@H](CO)NC(=O)[C@H](CC(=O)O)NC(=O)[C@H](Cc2ccccc2)NC(=O)[C@@H]2CSSC[C@H](NC(=O)[C@H](CCC(N)=O)NC(=O)[C@H](CC(N)=O)NC(=O)[C@H](C)NC(=O)[C@H](CO)NC(=O)[C@H](CC(C)C)NC(=O)CNC(=O)[C@@H](NC(=O)[C@H](Cc3ccc(O)cc3)NC(=O)[C@H](CCC(=O)O)NC(=O)[C@@H](N)CCC(=O)O)C(C)C)C(=O)N[C@@H](C)C(=O)N[C@@H](C(C)C)C(=O)N3CCC[C@H]3C(=O)N[C@@H](C)C(=O)N[C@@H](CCCCN)C(=O)N[C@@H](CC(=O)O)C(=O)N[C@@H](CCCNC(=N)N)C(=O)N[C@@H](C(C)C)C(=O)N[C@@H](CC(=O)O)C(=O)N[C@H]3CSSC[C@H](NC(=O)CNC(=O)[C@H](CCCNC(=N)N)NC(=O)[C@H](CC(N)=O)NC(=O)[C@H](CC(N)=O)NC(=O)[C@H](CSSC[C@@H](C(=O)N[C@@H](Cc4ccccc4)C(=O)N[C@@H](CCCCN)C(=O)N4CCC[C@H]4C(=O)N[C@@H](CC(C)C)C(=O)N[C@@H](CCC(N)=O)C(=O)N[C@@H](CCC(=O)O)C(=O)N[C@@H](C)C(=O)N[C@@H](CCC(=O)O)C(=O)N[C@@H](CSCNC(C)=O)C(=O)N[C@H](C(=O)N[C@@H](Cc4ccccc4)C(=O)O)[C@@H](C)O)NC(=O)[C@H](Cc4c[nH]c5ccccc45)NC(=O)[C@@H]4CCCN4C(=O)[C@H](C(C)C)NC(=O)CNC(=O)[C@@H]4CCCN4C1=O)NC(=O)[C@H](CCC(=O)O)NC(=O)[C@H](CCCCN)NC(=O)[C@@H]1CCCN1C(=O)[C@H]([C@@H](C)O)NC(=O)[C@H](C(C)C)NC(=O)[C@H](Cc1c[nH]cn1)NC(=O)[C@@H]1CCCN1C(=O)[C@H](Cc1ccc(O)cc1)NC(=O)CNC3=O)C(=O)N2` [TFF3(C^57Acm)], the half-life at 50 μM in data set [1] and in data set [2] was under 5 min each time. Moreover, the “concentration up to which CXCR4 was not activated (agonism, IP1 accumulation)” value at CXCR4 was over 10 µM.
